Measurements taken from ChEMBL document CHEMBL1138729, “Aminoimidazo[1,2-a]pyridines as a new structural class of cyclin-dependent kinase inhibitors. Part 1: Design, synthesis, and biological evaluation” (Bioorg Med Chem Lett, 2004).

Assays:
[1] = Inhibitory activity against Cyclin-dependent kinase 1 (CDK1)
[2] = target: Cyclin-dependent kinase 2 (Homo sapiens, UniProt P24941); assay: Inhibitory activity against Cyclin-dependent kinase 2 (CDK2)
[3] = target: Cyclin-dependent kinase 4 (Homo sapiens, UniProt P11802); assay: Inhibitory activity against Cyclin-dependent kinase 4 (CDK4)
Sequence of Cyclin-dependent kinase 4 (P11802 whole entry): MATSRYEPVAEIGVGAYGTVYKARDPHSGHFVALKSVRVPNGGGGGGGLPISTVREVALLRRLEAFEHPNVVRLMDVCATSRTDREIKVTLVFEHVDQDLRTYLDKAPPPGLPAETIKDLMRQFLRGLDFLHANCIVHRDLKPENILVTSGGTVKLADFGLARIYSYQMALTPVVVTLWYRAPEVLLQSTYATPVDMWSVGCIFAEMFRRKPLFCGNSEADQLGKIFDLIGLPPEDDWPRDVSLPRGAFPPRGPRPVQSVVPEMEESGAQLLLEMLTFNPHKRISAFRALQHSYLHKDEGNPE

Structure (SMILES) | IC50 [1] [nM] | IC50 [2] [nM] | IC50 [3] [nM]
Nc1nc2ccc(C(=O)c3c(F)cccc3F)cn2c1C(=O)c1c(F)cccc1F | 57 | 122 | 1080
Nc1nc2ccc(C(=O)c3c(F)cccc3Cl)cn2c1C(=O)c1c(F)cccc1F | 104 | 33 | 810
Nc1nc2ccc(/C(=C/c3nn[nH]n3)c3c(F)cccc3F)cn2c1C(=O)c1c(F)cccc1F | 96 | 1690 | 1700
Nc1nc2ccc(C(=O)c3c(F)cccc3F)cn2c1C(=S)c1c(F)cccc1F | 105 | 26 | 786
Nc1nc2ccc(C(=O)c3c(F)cccc3F)cn2c1C(=O)c1ccccc1 |  |  | 5050
NC(=O)c1cc(F)c(C(=O)c2c(N)nc3ccc(C(=O)c4c(Cl)cccc4Cl)cn23)c(F)c1 | 154 | 46 | 1140
COc1cc(F)c(C(=S)c2c(N)nc3ccc(C(=O)c4c(F)cccc4F)cn23)c(F)c1 | 143 | 29 | 464
Nc1nc2ccc(C(=O)c3c(Cl)cccc3Cl)cn2c1C(=O)c1c(F)cc(C(=O)O)cc1F | 328 | 95 | 2590
Nc1nc2ccc(C(=O)c3c(F)cccc3F)cn2c1C(=O)c1cccs1 |  | 547 | 
N#C/C=C(/c1ccc2nc(N)c(C(=O)c3c(F)cccc3F)n2c1)c1c(F)cccc1F | 53 | 160 | 1550
Nc1nc2ccc(C(=O)c3c(Cl)cccc3Cl)cn2c1C(=O)c1c(F)cc(O)cc1F |  | 52 | 
Nc1nc2ccc(C(=O)c3c(F)cccc3F)cn2c1C(=O)c1ccc(Cl)cc1 |  | 1710 | 
Nc1nc2ccc(C(=O)c3c(F)cccc3F)cn2c1C(=O)c1c(Cl)cccc1Cl | 209 | 121 | 359
Nc1nc2ccc(C(=O)c3ccccc3Cl)cn2c1C(=O)c1c(F)cccc1F |  | 428 | 
Nc1nc2ccc(C(=O)c3c(F)cccc3F)cn2c1C(=O)c1c(F)cccc1Cl | 239 | 102 | 827
COc1ccccc1C(=O)c1c(N)nc2ccc(C(=O)c3c(F)cccc3F)cn12 | 475 | 68 | 1970
COc1ccccc1C(=O)c1ccc2nc(N)c(C(=O)c3c(F)cccc3F)n2c1 |  | 603 | 
Nc1nc2ccc(C(=O)c3c(F)cccc3F)cn2c1C(=O)c1ccncc1 |  | 2540 | 
N#C/C=C(\c1ccc2nc(N)c(C(=O)c3c(F)cccc3F)n2c1)c1c(F)cccc1F |  | 896 | 
Nc1nc2ccc(C(=O)c3ccccc3OC(F)(F)F)cn2c1C(=O)c1c(F)cccc1F |  | 2170 | 
CN(C)CCOc1cc(F)c(C(=O)c2c(N)nc3ccc(C(=O)c4c(Cl)cccc4Cl)cn23)c(F)c1 |  | 984 | 
Nc1nc2ccc(C(=O)c3ccccc3)cn2c1C(=O)c1c(F)cccc1F |  | 1930 | 
Nc1nc2ccc(C(=O)c3c(Cl)cccc3Cl)cn2c1C(=O)c1c(F)cccc1F |  | 53 | 
Nc1nc2ccc(C(=O)c3ccccc3C(F)(F)F)cn2c1C(=O)c1c(F)cccc1F |  | 1070 | 
COc1cccc(OC)c1C(=S)c1c(N)nc2ccc(C(=O)c3c(F)cccc3F)cn12 |  | 462 | 
Nc1nc2ccc(C(=O)c3c(F)cccc3F)cn2c1C(=S)c1ccccc1 | 165 | 214 | 1890
CN1CCN(CCOc2cc(F)c(C(=O)c3c(N)nc4ccc(C(=O)c5c(Cl)cccc5Cl)cn34)c(F)c2)CC1 |  | 812 | 
Cc1ccccc1C(=O)c1ccc2nc(N)c(C(=O)c3c(F)cccc3F)n2c1 |  | 1290 | 
COc1cc(F)c(C(=O)c2c(N)nc3ccc(C(=O)c4c(F)cccc4F)cn23)c(F)c1 | 132 | 91 | 838
C=C(c1ccc2nc(N)c(C(=O)c3c(F)cccc3F)n2c1)c1c(F)cccc1F | 93 | 63 | 1030
